Like-named read-outs stand apart in the source and are kept apart here.
Target: T1, Human GLP-1 receptor (Homo sapiens, UniProt P43220)
T1 construct: expressed in transfected cells
Experiment: Measurement of GLP-1 receptor agonist activity (cAMP assay)
Assay type: cell-based
Description: Test Example 1: (Measurement of GLP-1 Receptor Agonist Activity)
Human GLP-1 receptor stably expressing cells (hGLP-1R/CHO-K1 cells) are cultured in an α-MEM medium (Sigma) containing 10% FBS (Hyclone), 2% GlutaMAX (Gibco), 1% G418 (Nacalai Tesque), and 1% Penicillin-Streptomycin Mixed Solution (Sigma) at 37° C. under 5% CO2 conditions, and recovered by treating a 10 fold diluted 5.0 g/l-trypsin/5.3 mmol/l-EDTA solution (Nacalai Tesque) and cryopreserved.
A DMSO solution containing the compound of the present invention or human GLP-1 (7-36) (Phoenix Pharmaceuticals) is dispensed into a 384-well microplate (Greiner) at 62.5 nL/well, and in addition, 400 μM Forskolin (Nacalai Tesque) is dispensed therein at 7.5 nL/well. Subsequently, the frozen GLP-1 R/CHO-K1 cells are thawed in a thermostatic bath at 37° C., suspended in HBSS buffer (GIBCO) containing 0.1% BSA (Sigma), 20 mM HEPES (GIBCO), 0.1 mM IBMX (Sigma), and 0.2 mM RO20-1724 (Calbiochem) at 2×10^4 cells/mL, and the cell suspension is added at 6 μL/well. The solution was incubated at 37° C. for 1 hour and intracellular cAMP concentration is measured using cAMP Gs dynamic kit (Cisbio) according to the protocol attached to the product. Specifically, cAMP-d2 and Anti-cAMP-Cryptate are each added in an amount of 3 μL/well, the mixture is incubated at room temperature for 1 hour, and time-resolved fluorescence is measured using PHERAstar (BMG Labtech).
The dilution concentration or the dilution solvent are changed as necessary.
The compounds of the present invention were tested essentially as described above.

[1] = CHO-K1, hGLP-1R/CHO-K1 cells, cAMP, 100% = human GLP-1 (7-36) at 2 nM, 0% = DMSO only, read-out: Emax(%)
[2] = hGLP-1R/CHO-K1 cells, cAMP increase, 37° C. 1 hour

T1 sequence (P43220 24-463): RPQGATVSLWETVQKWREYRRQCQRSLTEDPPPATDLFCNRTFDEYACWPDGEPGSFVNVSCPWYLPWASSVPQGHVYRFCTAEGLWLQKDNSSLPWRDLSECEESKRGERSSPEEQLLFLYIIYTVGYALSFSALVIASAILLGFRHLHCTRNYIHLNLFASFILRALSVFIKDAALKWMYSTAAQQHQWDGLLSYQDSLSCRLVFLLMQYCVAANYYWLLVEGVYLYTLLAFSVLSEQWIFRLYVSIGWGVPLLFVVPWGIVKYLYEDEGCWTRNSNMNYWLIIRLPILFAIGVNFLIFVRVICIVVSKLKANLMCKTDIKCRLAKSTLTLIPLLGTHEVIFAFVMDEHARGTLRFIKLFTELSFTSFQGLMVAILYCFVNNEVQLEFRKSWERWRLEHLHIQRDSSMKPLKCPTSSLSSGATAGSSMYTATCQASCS

SMILES | Emax [1] [%] | EC50 [2] [nM] | Emax (CHO-K1, maximum effect, cAMP increase in GLP-1 R/CHO-K1 cells, 2 nM human GLP-1 (7-36) = 100%, DMSO only = 0%, read-out: Emax) [%] | EC50 (cAMP increase in GLP-1 R/CHO-K1 cells, 2 nM human GLP-1 (7-36) = 100%, DMSO only = 0%) [nM]
CC(c1nc2ccc(C(=O)O)cc2n1C[C@@H]1CCO1)N1CCc2cc(C(F)(F)F)c(OCc3ccc(Cl)cc3F)cc2C1 (mixture of isomers) [Compound I-032] | 146 | 92.7 |  | 
Cc1cc2c(cc1OCc1ccc(Cl)cc1F)CN(Cc1nc3ccc(C(=O)O)cc3n1C[C@@H]1CCO1)CC2 [Compound I-001] | 75 | 47.5 |  | 
CCn1cncc1Cn1c(CN2CCc3cc(C)c(OCc4ccc(Cl)cc4F)cc3C2)nc2ccc(C(=O)O)cc21 [Compound I-002] | 92.2 | 43.3 |  | 
Cc1cc2c(cc1OCc1ccc(Cl)cc1F)C(=O)N(Cc1nc3ccc(C(=O)O)cc3n1C[C@@H]1CCO1)CC2 [Compound I-004] | 75.3 | 43.9 |  | 
Cc1cc2ccc(Cc3nc4ccc(C(=O)O)cc4n3C[C@@H]3CCO3)cc2nc1OCc1ccc(Cl)cc1F [Compound I-006] | 86 |  |  | 
N#Cc1cc2c(cc1OCc1ccc(Cl)cc1F)CN(Cc1nc3ccc(C(=O)O)cc3n1C[C@@H]1CCO1)CC2 [Compound I-008] | 84.3 |  |  | 
Cc1cc2c(cc1OCc1ccc(Cl)cc1F)C(=O)N(Cc1nc3ccc(C(=O)O)nc3n1C[C@@H]1CCO1)CC2 [Compound I-011] | 92.7 | 70.8 |  | 
Cc1cc2c(cc1OCc1ccc(C(F)(F)F)cn1)CN(Cc1nc3ccc(C(=O)O)cc3n1C[C@@H]1CCO1)CC2 [Compound I-015] | 81.3 | 74.3 |  | 
Cc1cc2c(cc1OCc1ccc(Cl)cc1)CN(Cc1nc3ccc(C(=O)O)cc3n1C[C@@H]1CCO1)CC2 [Compound I-016] | 79 | 50.3 |  | 
Cc1cc2c(cc1OCc1ccc(C(F)(F)F)cc1F)CN(Cc1nc3ccc(C(=O)O)cc3n1C[C@@H]1CCO1)CC2 [Compound I-020] | 89 | 75.8 |  | 
CC1c2cc(OCc3ccc(Cl)cc3F)ccc2CCN1Cc1nc2ccc(C(=O)O)cc2n1C[C@@H]1CCO1 (some centres unmarked) [Compound I-025] |  |  | 78.7 | 109
Cc1cc2c(cc1OCc1ccc(Cl)cc1F)CN(Cc1nc3ncc(C(=O)O)cc3n1C[C@@H]1CCO1)CC2 [Compound I-028] | 84 | 78.6 |  | 
Cc1cc2c(cc1OCc1ccc(F)cc1F)CN(Cc1nc3ccc(C(=O)O)cc3n1C[C@@H]1CCO1)CC2 [Compound I-029] | 81.3 | 94.6 |  | 
C[C@@H]1c2cc(OCc3ccc(Cl)cc3F)c(C(F)(F)F)cc2CCN1Cc1nc2ccc(C(=O)O)cc2n1C[C@@H]1CCO1 [Compound I-036] | 66 | 99.5 |  | 
CS(=O)(=O)CCn1c(CN2CCc3cc(C(F)(F)F)c(OCc4ccc(Cl)cc4F)cc3C2)nc2ccc(C(=O)O)cc21 [Compound I-039] | 83.3 | 43.8 |  | 
O=C(O)c1ccc2nc(CN3CCc4cc(C(F)(F)F)c(OCc5ccc(Cl)cc5F)cc4C3)n(C[C@@H]3CCCO3)c2c1 [Compound I-040] | 147 | 37.7 |  | 
N#CCC1(Cn2c(CN3CCc4cc(C(F)(F)F)c(OCc5ccc(Cl)cc5F)cc4C3)nc3ccc(C(=O)O)cc32)CC1 [Compound I-041] | 102 | 45.2 |  | 
O=C(O)c1ccc2nc(CN3CCc4cc(C(F)(F)F)c(OCc5ccc(Cl)cc5F)cc4C3)n(C[C@H]3CCO3)c2c1 [Compound I-042] | 95 | 73.8 |  | 
COCCn1c(CN2CCc3cc(C(F)(F)F)c(OCc4ccc(Cl)cc4F)cc3C2)nc2ccc(C(=O)O)cc21 [Compound I-045] | 93.7 | 81.5 |  | 
O=C(O)c1ccc2nc(Cc3ccc4cc(C(F)(F)F)c(OCc5ccc(Cl)cc5F)nc4c3)n(C[C@@H]3CCO3)c2c1 [Compound I-046] | 118 |  |  | 
O=C(O)c1ccc2nc(CN3CCc4cc(C(F)(F)F)c(OCc5ccc(Cl)cc5F)cc4C3)n(CC3(C(F)F)CC3)c2c1 [Compound I-048] | 130 | 75.4 |  | 
Cn1nncc1Cn1c(CN2CCc3cc(C(F)(F)F)c(OCc4ccc(Cl)cc4F)cc3C2)nc2ccc(C(=O)O)cc21 [Compound I-050] | 67.7 | 238 |  | 
O=C(NS(=O)(=O)C1CC1)c1ccc2nc(CN3CCc4cc(C(F)(F)F)c(OCc5ccc(Cl)cc5F)cc4C3)n(C[C@@H]3CCO3)c2c1 [Compound I-055] | 87.3 | 78.8 |  | 
O=C(O)c1ccc2nc(CN3CCc4cc(C(F)(F)F)c(OCc5ccc(Cl)c(F)c5F)cc4C3)n(C[C@@H]3CCO3)c2c1 [Compound I-059] | 112 | 29.9 |  | 

The next lines start with the values.

Emax [1] [%] | EC50 [2] [nM] | Emax (CHO-K1, maximum effect, cAMP increase in GLP-1 R/CHO-K1 cells, 2 nM human GLP-1 (7-36) = 100%, DMSO only = 0%, read-out: Emax) [%] | EC50 (cAMP increase in GLP-1 R/CHO-K1 cells, 2 nM human GLP-1 (7-36) = 100%, DMSO only = 0%) [nM] | SMILES
103 | 9.98 |  |  | CCC1c2cc(OCc3ccc(Cl)cc3F)c(C(F)(F)F)cc2CCN1Cc1nc2ccc(C(=O)O)cc2n1C[C@@H]1CCO1 (mixture of isomers) [Compound I-044]
124 | 8.72 |  |  | O=C(O)c1ccc2nc(CN3CCc4cc(C(F)(F)F)c(OCc5ccc(Cl)cc5F)cc4C3C(F)F)n(C[C@@H]3CCO3)c2c1 (mixture of isomers) [Compound I-066]
112 | 4.5 |  |  | O=C(O)c1ccc2nc(CN3CCc4cc(C(F)(F)F)c(OCc5ccc(Cl)cc5F)cc4C3CF)n(C[C@@H]3CCO3)c2c1 (mixture of isomers) [Compound I-133]
75.7 | 19.8 |  |  | O=C(O)c1ccc2nc(CN3CCc4cc(Br)c(OCc5ccc(Cl)cc5F)cc4C3)n(C[C@@H]3CCO3)c2c1 [Compound I-007]
81.3 | 27.3 |  |  | Cc1cc2c(cc1OCc1ccc(Cl)cc1F)CN(Cc1nc3ccc(C(=O)O)nc3n1C[C@@H]1CCO1)CC2 [Compound I-009]
92.3 | 15 |  |  | O=C(O)c1ccc2nc(CN3CCc4cc(Cl)c(OCc5ccc(Cl)cc5F)cc4C3)n(C[C@@H]3CCO3)c2c1 [Compound I-022]
86 | 4.56 |  |  | O=C(O)c1ccc2nc(CN3CCc4cc(C(F)(F)F)c(OCc5ccc(Cl)cc5F)cc4C3)n(C[C@@H]3CCO3)c2c1 [Compound I-023]
92.7 | 26.4 |  |  | O=C(O)c1ccc2nc(CN3CCc4cc(Cl)c(OCc5ccc(Cl)cc5F)cc4C3)n(C[C@@H]3CCO3)c2n1 [Compound I-024]
85 | 6.35 |  |  | O=C(O)c1ccc2nc(CN3CCc4cc(C(F)(F)F)c(OCc5ccc(Cl)cc5F)cc4C3)n(C[C@@H]3CCO3)c2n1 [Compound I-026]
80 | 9.48 |  |  | O=C(O)c1ccc2nc(CN3CCc4cc(C(F)F)c(OCc5ccc(Cl)cc5F)cc4C3)n(C[C@@H]3CCO3)c2c1 [Compound I-027]
92.3 | 3.56 |  |  | O=C(O)c1ccc2nc(CN3CCc4cc(C(F)(F)F)c(OCc5ccc(Cl)cc5F)cc4C3=O)n(C[C@@H]3CCO3)c2c1 [Compound I-030]
91 | 8.92 |  |  | O=C(O)c1ccc2nc(CN3CCc4cc(C(F)(F)F)c(OCc5ccc(Cl)cc5F)cc4C3=O)n(C[C@@H]3CCO3)c2n1 [Compound I-031]
103 | 8.71 |  |  | O=C(O)c1cc2c(cc1F)nc(CN1CCc3cc(C(F)(F)F)c(OCc4ccc(Cl)cc4F)cc3C1)n2C[C@@H]1CCO1 [Compound I-034]
126 | 0.663 |  |  | C[C@H]1c2cc(OCc3ccc(Cl)cc3F)c(C(F)(F)F)cc2CCN1Cc1nc2ccc(C(=O)O)nc2n1C[C@@H]1CCO1 [Compound I-037]
109 | 13.2 |  |  | O=C(O)c1ccc2nc(CN3CCc4cc(C(F)(F)F)c(OCc5ccc(Cl)cc5F)cc4C3)n(CC3(CF)CC3)c2c1 [Compound I-043]
105 | 4.3 |  |  | O=C(O)c1ccc2nc(CN3CCc4cc(C(F)(F)F)c(OCc5ccc(OC(F)F)cc5F)cc4C3)n(C[C@@H]3CCO3)c2c1 [Compound I-047]
95 | 5.03 |  |  | CCn1cncc1Cn1c(CN2CCc3cc(C(F)(F)F)c(OCc4ccc(Cl)cc4F)cc3C2)nc2ccc(C(=O)O)cc21 [Compound I-049]
87.3 | 24.2 |  |  | O=C(O)c1ccc2nc(CN3CCc4cc(C(F)(F)F)c(OCc5ccc(Cl)cc5F)cc4C3)n(Cc3cccnc3)c2c1 [Compound I-051]
92 | 24.5 |  |  | O=C(O)c1ccc2nc(CN3CCc4cc(C(F)(F)F)c(OCc5ccc(Cl)cc5F)cc4C3)n(Cc3ncco3)c2c1 [Compound I-052]
115 | 14.6 |  |  | N#Cc1ccc(COc2cc3c(cc2C(F)(F)F)CCN(Cc2nc4ccc(C(=O)O)cc4n2C[C@@H]2CCO2)C3)c(F)c1 [Compound I-053]
104 | 0.948 |  |  | O=C(O)c1ccc2nc(CN3CCc4cc(C(F)(F)F)c(OCc5ccc(Cl)cc5F)cc4C3)n(C[C@@H]3CCO3)c2c1F [Compound I-054]
110 | 6.04 |  |  | O=C(O)c1ccc2nc(CN3CCc4cc(C(F)(F)F)c(OCc5ccc(C(F)F)cc5F)cc4C3)n(C[C@@H]3CCO3)c2c1 [Compound I-056]
